Results published in PubChem BioAssay (NCI).
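Exposure lasted 48 hours, with cells grown in 96-well plates and compounds tested at five concentrations. GI50 marks 50% less growth. At the TGI there is no net growth.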

What was measured:
Test in all cases: inhibition of tumour cell growth, NCI panel, 48 h
NCI-H460 lung = test system: NCI-H460 lung
CAKI-1 renal = test system: CAKI-1 renal
HCT-116 colon = test system: HCT-116 colon
RXF 393 renal = test system: RXF 393 renal
UACC-257 melanoma = test system: UACC-257 melanoma
LOX IMVI melanoma = test system: LOX IMVI melanoma
T-47D breast = test system: T-47D breast
HCC-2998 colon = test system: HCC-2998 colon
MDA-MB-435 = test system: MDA-MB-435
OVCAR-3 ovarian = test system: OVCAR-3 ovarian
HOP-62 NSCLC = test system: HOP-62 NSCLC
MDA-MB-231 breast = test system: MDA-MB-231 breast
A549 NSCLC = test system: A549 NSCLC
RPMI-8226 leukemia = test system: RPMI-8226 leukemia
OVCAR-4 ovarian = test system: OVCAR-4 ovarian
UO-31 renal = test system: UO-31 renal
NCI-H23 lung = test system: NCI-H23 lung
MOLT-4 leukemia = test system: MOLT-4 leukemia
DU-145 prostate = test system: DU-145 prostate
TK-10 renal = test system: TK-10 renal
MALME-3M melanoma = test system: MALME-3M melanoma
HS 578T breast = test system: HS 578T breast
SF-539 CNS = test system: SF-539 CNS
HL-60(TB) leukemia = test system: HL-60(TB) leukemia
U251 CNS = test system: U251 CNS
MCF7 breast = test system: MCF7 breast
OVCAR-5 ovarian = test system: OVCAR-5 ovarian
COLO 205 colon = test system: COLO 205 colon
OVCAR-8 ovarian = test system: OVCAR-8 ovarian
SW-620 colon = test system: SW-620 colon
SK-MEL-2 melanoma = test system: SK-MEL-2 melanoma
SN12C renal = test system: SN12C renal
SK-OV-3 ovarian = test system: SK-OV-3 ovarian
NCI/ADR-RES ovarian = test system: NCI/ADR-RES ovarian
SK-MEL-28 melanoma = test system: SK-MEL-28 melanoma
786-0 renal = test system: 786-0 renal
EKVX NSCLC = test system: EKVX NSCLC
HOP-92 NSCLC = test system: HOP-92 NSCLC
UACC-62 melanoma = test system: UACC-62 melanoma
HCT-15 colon = test system: HCT-15 colon
SF-268 CNS = test system: SF-268 CNS
SNB-75 CNS = test system: SNB-75 CNS
BT-549 breast = test system: BT-549 breast
NCI-H226 lung = test system: NCI-H226 lung
SF-295 CNS = test system: SF-295 CNS
A498 renal = test system: A498 renal
HT29 colon = test system: HT29 colon
PC-3 prostate = test system: PC-3 prostate
CCRF-CEM leukemia = test system: CCRF-CEM leukemia
SNB-19 CNS = test system: SNB-19 CNS
ACHN renal = test system: ACHN renal
K-562 leukemia = test system: K-562 leukemia
KM12 colon = test system: KM12 colon
SK-MEL-5 melanoma = test system: SK-MEL-5 melanoma

In the case of `Ic1ccc2[nH]cc(SSc3c[nH]c4ccc(I)cc34)c2c1`, the GI50 (NCI-H460 lung) is reported as 2.41 µM, the TGI (NCI-H460 lung) is reported as 6.52 µM and the GI50 (CAKI-1 renal) is reported as 2.23 µM. For the same compound, the TGI (CAKI-1 renal) was 6.3 µM, the GI50 (HCT-116 colon) was 1.25 µM and the TGI (HCT-116 colon) was 3.08 µM. It also gave a GI50 (RXF 393 renal) of 1.5 µM, a TGI (RXF 393 renal) of 5.68 µM and a GI50 (UACC-257 melanoma) of 2.79 µM. The TGI (UACC-257 melanoma) was 6.74 µM, the GI50 (LOX IMVI melanoma) was 1.43 µM and the TGI (LOX IMVI melanoma) was 3.51 µM. For the same compound, the GI50 (T-47D breast) was 2.68 µM, the TGI (T-47D breast) was 11.2 µM and the GI50 (HCC-2998 colon) was 2.34 µM. For the same compound, the TGI (HCC-2998 colon) was 4.76 µM, the GI50 (MDA-MB-435) was 2.84 µM and the TGI (MDA-MB-435) was 8.97 µM. The GI50 (OVCAR-3 ovarian) was 1.73 µM, the TGI (OVCAR-3 ovarian) was 5.56 µM and the GI50 (HOP-62 NSCLC) was 3.14 µM. For the same compound, the TGI (HOP-62 NSCLC) was 8.71 µM, the GI50 (MDA-MB-231 breast) was 2.1 µM and the TGI (MDA-MB-231 breast) was 5.13 µM. The GI50 (A549 NSCLC) was 3.65 µM, the TGI (A549 NSCLC) was 12 µM and the GI50 (RPMI-8226 leukemia) was 1.78 µM. The TGI (RPMI-8226 leukemia) was 5.5 µM, the GI50 (OVCAR-4 ovarian) was 3.02 µM and the TGI (OVCAR-4 ovarian) was 16.6 µM. For the same compound, the GI50 (UO-31 renal) was 3.06 µM, the TGI (UO-31 renal) was 17.3 µM and the GI50 (NCI-H23 lung) was 2.36 µM. The TGI (NCI-H23 lung) was 7.96 µM, the GI50 (MOLT-4 leukemia) was 1.7 µM and the TGI (MOLT-4 leukemia) was 4.62 µM. For the same compound, the GI50 (DU-145 prostate) was 3.47 µM, the TGI (DU-145 prostate) was 12.9 µM and the GI50 (TK-10 renal) was 2.88 µM. For the same compound, the TGI (TK-10 renal) was 10.1 µM, the GI50 (MALME-3M melanoma) was 1.92 µM and the TGI (MALME-3M melanoma) was 8.29 µM. It also gave a GI50 (HS 578T breast) of 1.93 µM, a TGI (HS 578T breast) of 6.24 µM and a GI50 (SF-539 CNS) of 2.39 µM. For the same compound, the TGI (SF-539 CNS) was 9.29 µM, the GI50 (HL-60(TB) leukemia) was 1.18 µM and the TGI (HL-60(TB) leukemia) was 3.56 µM. For the same compound, the GI50 (U251 CNS) was 2.25 µM, the TGI (U251 CNS) was 10.1 µM and the GI50 (MCF7 breast) was 2.69 µM. For the same compound, the TGI (MCF7 breast) was 11.6 µM, the GI50 (OVCAR-5 ovarian) was 2.38 µM and the TGI (OVCAR-5 ovarian) was 6.11 µM. The GI50 (COLO 205 colon) was 1.91 µM, the TGI (COLO 205 colon) was 4.02 µM and the GI50 (OVCAR-8 ovarian) was 3.77 µM. The TGI (OVCAR-8 ovarian) was 17.8 µM, the GI50 (SW-620 colon) was 2.74 µM and the TGI (SW-620 colon) was 10.5 µM. The GI50 (SK-MEL-2 melanoma) was 2.3 µM, the TGI (SK-MEL-2 melanoma) was 6.96 µM and the GI50 (SN12C renal) was 2.86 µM. It also gave a TGI (SN12C renal) of 11 µM, a GI50 (SK-OV-3 ovarian) of 3.46 µM and a TGI (SK-OV-3 ovarian) of 11.7 µM. It also gave a GI50 (NCI/ADR-RES ovarian) of 2.57 µM, a TGI (NCI/ADR-RES ovarian) of 7.13 µM and a GI50 (SK-MEL-28 melanoma) of 3.36 µM. It also gave a TGI (SK-MEL-28 melanoma) of 12.6 µM, a GI50 (786-0 renal) of 3.49 µM and a TGI (786-0 renal) of 12.4 µM. The GI50 (EKVX NSCLC) was 1.2 µM, the TGI (EKVX NSCLC) was 10.1 µM and the GI50 (HOP-92 NSCLC) was 0.936 µM. The TGI (HOP-92 NSCLC) was 3.69 µM, the GI50 (UACC-62 melanoma) was 2.7 µM and the TGI (UACC-62 melanoma) was 11.5 µM. It also gave a GI50 (HCT-15 colon) of 2.21 µM, a TGI (HCT-15 colon) of 10.4 µM and a GI50 (SF-268 CNS) of 2.99 µM. It also gave a TGI (SF-268 CNS) of 10.9 µM, a GI50 (SNB-75 CNS) of 2.36 µM and a TGI (SNB-75 CNS) of 9.28 µM. The GI50 (BT-549 breast) was 1.35 µM, the TGI (BT-549 breast) was 7.04 µM and the GI50 (NCI-H226 lung) was 1.98 µM. It also gave a TGI (NCI-H226 lung) of 9.35 µM, a GI50 (SF-295 CNS) of 1.89 µM and a TGI (SF-295 CNS) of 4.69 µM. For the same compound, the GI50 (A498 renal) was 2.06 µM, the TGI (A498 renal) was 5.97 µM and the GI50 (HT29 colon) was 3.36 µM. For the same compound, the TGI (HT29 colon) was 11.2 µM, the GI50 (PC-3 prostate) was 0.492 µM and the TGI (PC-3 prostate) was 4.65 µM. The GI50 (CCRF-CEM leukemia) was 1.25 µM, the TGI (CCRF-CEM leukemia) was 3.48 µM and the GI50 (SNB-19 CNS) was 3.25 µM. It also gave a TGI (SNB-19 CNS) of 11.9 µM, a GI50 (ACHN renal) of 2.25 µM and a TGI (ACHN renal) of 6.99 µM. It also gave a GI50 (K-562 leukemia) of 2 µM, a TGI (K-562 leukemia) of 6.27 µM and a GI50 (KM12 colon) of 1.5 µM. It also gave a TGI (KM12 colon) of 5.83 µM, a GI50 (SK-MEL-5 melanoma) of 3.18 µM and a TGI (SK-MEL-5 melanoma) of 13.5 µM.
